The structures appear in SMILES notation. Some results are limits rather than exact numbers.

As a reminder, the melting point is the temperature, or range, at which the solid turns liquid.

For `O=C(NCc1ccc2c(c1)-c1[nH]nc(-c3ccsc3)c1C2)c1cccnc1`, the melting point stood at 286 °C.
In the case of `COc1ccccc1C(=O)c1cccc(C#N)c1`, the melting point amounted to 180 °C.
For the compound `COc1ccc(COC(=O)[C@@H]2C[C@@H](O)CN2C(=O)OCc2ccc([N+](=O)[O-])cc2)cc1`, the melting point lay within 83 to 85 °C.
Compound `Cc1cc(=O)c(Oc2ccc(F)cc2F)c(-c2ccc(S(C)=O)cc2)o1` (configuration not stated) returned a melting point of 158 to 159 °C.
In turn, `Cc1ccc([C@@H]2c3c(C)c(N4CCC(c5ccccc5)CC4)c(C)c(C)c3OC2(C)C)cc1` displayed a melting point of 137 to 140 °C.
As for `COc1cc2c(cc1OC)-c1cc(=O)n(C)c(=O)n1CC2`, the figure is 260 to 262 °C; as for `CS(=O)(=O)c1ccc(OC(Cc2ccc(OCCNC(=O)c3ccc(-c4ccccn4)cc3)cc2)C(=O)O)cc1` (configuration not stated), 231 to 233 °C; as for `CCCCCCCCS(=O)(=O)NCCCCOc1ccc(-n2ccnc2)cc1`, 99 to 100 °C.
As for `Cc1cc(Nc2ccc(NC(=O)c3ccc(Nc4ccnc5ccc(Cl)cc45)cc3)cc2)nc(N)n1`, the figure is 250 to 254 °C.
Then `CC(=O)c1ccc(CC(C)NCC(O)c2ccccc2)cc1` (configuration not stated), with 120 to 135 °C; and `COC(=O)c1ccc(CCCOCCCCCNCC(O)c2cc(Cl)c(N)c(Cl)c2)o1` (configuration not stated), with 58 to 59 °C.
`Nc1ccn2c(=O)c(C(=O)O)ccc2c1` came in with a melting point of more than 250 °C.
In turn, `CC(C)(C)COc1ccc(-n2ncc(C(=O)O)c2Cl)cc1C#N` had a melting point of 212 °C.
As for `Ic1ccc(OC23CC4CC(CC(C4)C2)C3)cc1`, the melting point was in the range of 115 to 118 °C.
Consider `Nc1cccc(-c2ccc(CCN3CC4C(C3)C4NC(=O)Nc3ccccc3)cc2)n1` (configuration not stated), for which the melting point lay within 192 to 194 °C.
`Cc1oc(-c2ccccc2)nc1COc1cncc(COc2cccc(CC(=O)O)c2)c1`: the melting point lay within 143 to 144 °C.
As for `O=C1NCCC1Cc1ccccc1` (configuration not stated), the melting point lay within 112 to 113 °C.
Regarding `Cc1cc(O)c(I)cc1C(=O)O`, the melting point was in the range of 143 to 150 °C.
Then `CN(C)C(=O)NCc1cccc(-c2nc(=O)c3ccccc3s2)n1`, with 175 to 176 °C; and `COC(=O)C[C@@H](CC(=O)/C=C/c1c(-c2ccc(F)cc2)c(-c2ccc(F)cc2)c(C(=O)Nc2cccc(C(=O)N(C)C)c2)n1C(C)C)O[Si](C)(C)C(C)(C)C`, with 135 to 137 °C.
Take `Cc1ccc(C2=NC(C)(C)[C@@H](c3ccncc3)C2)c(C)c1`: the melting point is 50 to 51 °C.
`Cn1cc(-c2cc(-c3cnc4[nH]cc(C(F)(F)F)c4c3)ccn2)n(-c2ccc(C(C)(C)C#N)cc2)c1=O` gave a melting point of 159 °C.
`CC1=C(C)C(=O)C(C(CCCCCCC(=O)O)c2cccnc2)=C(C)C1=O` (configuration not stated) displayed a melting point of 113 to 114 °C.
In turn, `Cc1cccc(CCN2CCC[C@H](C(C#N)(c3ccccc3)c3ccccc3)C2)c1` yielded a melting point of 149 to 150 °C.
Take `Nc1cccc(-c2cccc(CC3CCCC3NCCc3ccccc3)c2)n1` (configuration not stated): the melting point was in the range of 110 to 130 °C.
The compound `O=C(c1ccc(-c2ccc(CBr)cc2)cc1)c1ccc(Cl)cc1Cl` returned a melting point of 92 °C.
Take `CC(C)CC(=O)Nc1ccccc1`: the melting point is 67 to 68 °C.
As for `COP(=O)(OC)C(O)=Cc1cccc(Cl)c1`, the melting point was 136 to 138 °C.
Regarding `CC1(C)CC(=O)C(S(=O)(=O)Cc2ccc(Cl)cc2)=C(O)C1`, the melting point was in the range of 111 to 113 °C.
`c1ccc(-c2nc(COc3cccc(CCCn4ccnc4)c3)co2)cc1` gave a melting point of 62 to 63 °C.
The compound `Cn1ncnc1COc1nc2c(-c3ccccc3)nncn2c1-c1cccc(Cl)c1` gave a melting point of 80 to 84 °C.
As for `Nc1c(-c2ccccc2)nn2ccccc12`, the figure is 155 to 157 °C; as for `CCCc1nc(C)n2ncnc2c1Cc1ccc(-c2ccccc2C#N)cc1`, 112 °C.
The compound `COc1cccc(Oc2c(NS(=O)(=O)c3ccc(C(C)(C)C)cc3)ncnc2OCCOc2cccnn2)c1` had a melting point of 170 °C.
`COCCOCOc1c(C(C)(C)C)cc(-c2n[nH]c(=S)s2)cc1C(C)(C)C`: the melting point was in the range of 134 to 135 °C.
With `CCC(CC)c1ccc(Cl)c2nc3n(c12)CCCCN3c1ncc(C(N)=O)cc1C`, the melting point was 234 to 235 °C.
`COc1cc(C(=O)CCCN2CCC(OC(=O)c3cc(Cl)c(N)c4cc(C)oc34)CC2)cc(OC)c1OC` displayed a melting point of 129 °C.
Take `Fc1cc(I)ccc1Nc1c(-c2nnc(NCCN3CCOCC3)o2)ccc(F)c1F`: the melting point was in the range of 77 to 80 °C.
`C[Si](C)(C)C#Cc1ccc(C#N)cc1[N+](=O)[O-]` showed a melting point of 81 to 82 °C.
In the case of `CCCCc1ncc(C/C=C/C(N)(Cc2cccs2)C(=O)O)n1Cc1ccc(C(=O)O)cc1` (configuration not stated), the melting point was 223 to 224 °C.
In the case of `CC1=CC(=Cc2cc(C)cc(C3(C)CCCCC3)c2OCc2ccccc2)C(O)C(C2(C)CCCCC2)=C1` (configuration not stated), the melting point is 97 to 99 °C.
`O=C(Nc1c(C(F)(F)F)n[nH]c1-c1ccccc1)c1ccccc1` showed a melting point of 229 to 230 °C.
On to `COC(=O)c1ccc(O)cn1`, for which the melting point was 188 to 190 °C.
Take `COc1cccc(C2(C(N)=O)CCCCC2)c1`: the melting point lay within 120 to 122 °C.
The compound `CCCCCCCCOc1ccc(C(=O)OC)c(O)c1` displayed a melting point of 46 to 47 °C.
With `CCOC(=O)NC(=O)CNS(=O)(=O)c1ccc(N2CCC(NC[C@H](O)c3ccc(O)c(NS(C)(=O)=O)c3)CC2)cc1`, the melting point was 98 to 105 °C.
For `O=C(O)C1CCc2ccc(O)cc2C1` (configuration not stated), the melting point was 170 to 171 °C.
`COc1ccc(C=CBr)cc1O` yielded a melting point of 64 to 66 °C.
Then `CC(=O)OC1CSC(Oc2ccnc(-c3ccc(F)nc3)c2)C(OC(C)=O)C1OC(C)=O` (configuration not stated), with 151 °C.
Then `CNc1nn2nnnc2c2c1CCCC2`, with 318 °C; and `CNC(=O)NC(=O)C(CC1CCCC1)c1ccc(S(C)(=O)=O)c(Br)c1` (configuration not stated), with 259 to 260 °C; and `O=S(=O)(O)CCCCN1CCN(C(c2ccc(F)cc2)c2ccccn2)CC1` (configuration not stated), with 231 to 232 °C.
Turning to `Cc1cc(-c2ccc(S(C)(=O)=O)cc2)n(-c2ccc(F)cc2)c1Cl`, the melting point is 151 to 154 °C.
On to `CCc1cc(C(=O)c2ccccc2Cl)c(-n2c(CNC(=O)c3cc4ccccc4[nH]3)nnc2-c2ccccc2)s1`, for which the melting point lay within 230 to 232 °C.
In the case of `CNC(=O)n1sc(-c2ccccc2)nc1=O`, the melting point came out at 210 °C.
The compound `CCOC(=O)C1=C(C)N2CCNC2=C(C(=O)OCC)C1C` (configuration not stated) yielded a melting point of 138 °C.
With `NS(=O)(=O)c1ccc(-c2cnn(-c3ccc(F)cc3)c(=O)c2Oc2ccc(F)cc2)cc1`, the melting point lay within 227 to 229 °C.
`Cn1ncc(Cl)c(NCCN2CCC(c3noc4cc(F)ccc34)CC2)c1=O`: the melting point is 108 to 109 °C.
`COc1ccc(C(=O)c2cccc3[nH]ccc23)cc1` came in with a melting point of 148 to 152 °C.
The compound `COC(=O)[C@H]1CC[C@H](n2ccn(-c3ccc(C4(C)CCN(C(=O)C(F)(F)F)CC4)cc3)c2=O)CC1` gave a melting point of 182 to 184 °C.
As for `COc1ccc(-c2cc(NC(=O)Nc3ccc(N(CCCl)CCCl)cc3)c3cc(OC)ccc3n2)cc1`, the figure is 112 to 113 °C; as for `Cc1ccc(S(=O)(=O)N(CCc2cccs2)CC(=O)N[C@@H](Cc2ccccc2)C(=O)O)cc1`, more than 200 °C.

The record behind these values is a melting point compilation (Tetko et al.; mined from patent text by program, amines drawn as free bases though some values may be those of a salt).
